Measured values reported in patent US6407125B1, “Pharmacological agent and method of treatment” (Novactyl, Inc., priority 1995, dated 2002).

Columns and labels:
[1] = system: WI-38 cells; assay: Growth of WI-38 cells (total cell protein, cell number); assay type: cell-based; details: for Monolayer Protein: WI-38, fusaric acid 0.5 mM
Description: (§1) Cells were plated at 1.5×10^5 cells/60-mm dish; 48 hours later, the medium was removed, and new media with or without 3 mM picolinic acid was added. Total cell protein was determined at the indicated times; each point is the average of triplicate measurements from 2 cultures.
(§2) In initial experiments to examine the effects of fusaric acid on cell growth and viability, WI-38 and LoVo cells were incubated for 24 to 72 hours in medium with or without various doses of fusaric acid (0.1-1 mM). The growth of both WI-38 and LoVo cells was inhibited by 500 μM fusaric acid in a time and dose dependent manner, as shown below in Table 2.

[2] = system: WI-38 cells; assay: Viability of WI-38 cells (trypan blue exclusion); assay type: cell-based; details: 500 μM fusaric acid
Description: To examine WI-38 cell viability in greater detail, the effects of fusaric acid were studied in logarithmically growing and contact inhibited confluent cells (Tables 2 and 3). In logarithmically growing WI-38 cells approximately 76% of the cells were viable after 30 hours of treatment with fusaric acid. When the cells were treated for 78 hours, only 26% of the cell population survived the pronounced cytotoxic actions of fusaric acid.

[3] = system: LoVo cells; assay: Growth of LoVo cells (total cell protein, cell number, DNA synthesis); assay type: cell-based, human; details: for Monolayer Protein: fusaric acid 0.5 mM
Description: as §1, §2
After 30 hours of treatment with 500 μM fusaric acid, there was a prominent decrease in cell number. DNA synthesis was completely (100%) inhibited by 24 hours. When treated with 500 μM fusaric acid, the majority of the LoVo cells acquired a rounded morphology by 48 hours.
However, after 100 hours, an increase in cell number was noted after 25 additional hours.

[4] = system: LoVo cells; assay: Viability of LoVo cells (trypan blue exclusion); assay type: cell-based, human; details: 500 μM fusaric acid
Description: As in the case of WI-38, LoVo cell viability after fusaric acid treatment was investigated in logarithmically growing and confluent cells, as shown in Tables 2 and 3. In logarithmically growing LoVo cells, approximately 38% of the attached cells were viable after 30 hours of treatment with fusaric acid. When the cells were treated for 78 hours, only 4.5% of the cell population survived the pronounced cytotoxic actions of fusaric acid. […] Thus, LoVo cells are much more sensitive to the cytotoxic actions of fusaric acid in both growing and confluent population of cells in comparison to normal WI-38 cells.

[5] = system: KB cells; assay: Growth of KB cells; assay type: cell-based, human; details: 48 hours in 500 μM
[6] = system: KB cells; assay: Viability of KB cells (trypan blue exclusion); assay type: cell-based, human; details: 500 μM fusaric acid
Description: To examine KB cell viability in greater detail, the effects of fusaric acid were studied in logarithmically growing and confluent cells. In logarithmically growing KB cells 70% of the cells were viable after 48 hours in 500 μtM fusaric acid. […] Thus, in contrast to LoVo cells, a significant proportion of the population of growing (70%) cells and virtually all (95%) of confluent KB cells resisted the pronounced cytotoxic action of fusaric acid (See Tables 3 and 4, above).

[7] = system: human breast adenocarcinoma MDA-468 cell; assay: Growth of MDA-468 cells (cell number, DNA synthesis); assay type: cell-based; details: MDA-468, 500 μM fusaric acid
Description: After 12-24 hours of treatment with 500 μM fusaric acid, there was no further increase in cell number. […] These floating cells were not viable. Within 30 hours of treatment there was a 65% decrease in cell number. […] After 96 hours, less than 10% of the original population remained attached to the dish and no change in cell number was noted after one additional week.

[8] = system: MDA-468 cells; assay type: cell-based, human
Description: As in the case of WI-38, MDA-468 cell viability after fusaric acid treatment was investigated in logarithmically growing and confluent cells. In logarithmically growing MDA-468 cells, less than 20% of the attached cells were viable after 30 hours of treatment with fusaric acid. When the cells were treated for 48 hours, only 0.1% of the cell population survived the pronounced cytotoxic actions of fusaric acid. […] Thus, MDA-468 cells are extremely sensitive to the cytotoxic actions of fusaric acid in both growing and confluent population of cells in comparison to normal WI-38 lines studied.

[9] = system: Prostatic adenocarcinoma; assay: Viability of other human carcinoma cell types; assay type: cell-based; details: 48 hours of treatment
Description: (§3) As in previous examples, the following human cell lines were inhibited by similar concentrations of fusaric acid: Prostatic adenocarcinoma, skin carcinoma, colon carcinoma, liver adenocarcinoma and lung adenocarcinoma. For all these cell types, cell viability decreased by approximately 60% after 48 hours of treatment with fusaric acid.

[10] = system: colon carcinoma; assay: Viability of other human carcinoma cell types; assay type: cell-based; details: 48 hours of treatment
Description: as §3

[11] = system: liver adenocarcinoma; assay: Viability of other human carcinoma cell types; assay type: cell-based; details: 48 hours of treatment
Description: as §3

[12] = system: lung adenocarcinoma; assay: Viability of other human carcinoma cell types; assay type: cell-based; details: 48 hours of treatment
Description: as §3

[13] = system: skin carcinoma; assay: Viability of other human carcinoma cell types; assay type: cell-based; details: 48 hours of treatment
Description: as §3

CCCCc1ccc(C(=O)O)nc1 [fusaric acid]
Monolayer Protein ([1]; 24 h): 195 μg/dish | Monolayer Protein ([1]; 48 h): 275 μg/dish | Monolayer Protein ([1]; 72 h): 345 μg/dish | time to resumed growth after removal of fusaric acid ([1]; WI-38, 30 hours in 500 μM): 125 h | decrease in cell number after removal of fusaric acid ([1]; WI-38, 30 hours in 500 μM, then 4 days in normal media): 30% | cells surviving after removal of fusaric acid ([1]; WI-38, remaining cells after 30 hours in 500 μM): > 95% | % Survival ([2]; WI-38, confluent cells, 48 h): 100% | % Survival ([2]; WI-38, logarithmic growth, 78 h): 26% | cytotoxicity in LoVo cells ([3]; 1 mM fusaric acid, by 24 hours): extensive cytotoxicity | inhibition at 500 µM ([3]; Homo sapiens, LoVo, 24 h, read-out: inhibition of DNA synthesis): 100% | decrease in cell number ([3]; LoVo, 500 μM fusaric acid, within 30 hours of treatment): 60% | Monolayer Protein ([3]; LoVo, 24 h): 135 μg/dish | Monolayer Protein ([3]; LoVo, 48 h): 90 μg/dish | Monolayer Protein ([3]; LoVo, 72 h): 101 μg/dish | % Survival ([4]; confluent cells, 48 h): 40% | % Survival ([4]; logarithmic growth, 78 h): 4.5% | time to resumed growth after removal of fusaric acid [5]: 27 h | viability at 500 µM ([6]; Homo sapiens, logarithmically growing, 48 hours, read-out: viable cells): 70% | % Survival ([6]; confluent cells, 48 h): 95% | inhibition at 500 µM ([7]; Homo sapiens, by 24 hr): 100% | decrease in cell number ([7]; within 30 hours): 65% | cells surviving ([8]; MDA-468, confluent, 500 μM fusaric acid, 48 hours): 10% | viable attached cells ([8]; MDA-468, logarithmically growing, fusaric acid, 30 hours): less than 20% | cell population surviving ([8]; MDA-468, logarithmically growing, fusaric acid, 48 hours): 0.1% | decrease in cell viability [9]: approximately 60% | decrease in cell viability [10]: approximately 60% | decrease in cell viability [11]: approximately 60% | decrease in cell viability [12]: approximately 60% | decrease in cell viability [13]: approximately 60%
